Patent US20230241257A1, “BIOTIN-MODIFIED DIMER AND USE THEREOF” (THE UNIVERSITY OF TOKYO, priority 2020, published 2023)

How the values were obtained:
Format in all cases: in vivo, mice (BALB/cSlc nu/nu)
[1] = system: human stomach cancer cells (MKN-45); experiment: Experiment 11: pharmacokinetics (6 h) of Cupid-scFv antibody (24 h before)+^211At-psyche-B in MKN-45 cancer-bearing mouse models; conditions: six hours after administration, tumor on Day 8 after transplantation
Method: (§1) The present experiment used human stomach cancer cells (MKN-45) expressing carcinoembryonic antigen (CEA). 9-week-old male immunodeficient mice (BALB/cSlc nu/nu) were used. MKN-45 cells (1×10^7/0.1 ml) were transplanted into the mice's subcutis on the right shoulder dorsal side to produce cancer-bearing mouse models. When the tumor volume became a predetermined size (on Day 8 after the transplantation), the Cupid-scFv antibody was administered 100 μmol/0.1 ml via the caudal vein of each mouse. Twenty-four hours after administration of the Cupid-scFv antibody, ^211At-psyche-B (about 0.30 MBq/100 ml) was administered via the caudal vein of each mouse. […] After that, the weights of blood, plasma, urine, tumor, and normal tissues/organs were measured, and the radioactivity thereof was then measured using a γ counter. The amounts of the ^211At-psyche-B (radioactivity) accumulated in the blood, plasma, urine, tumor, and normal tissues/organs were calculated. […] Regarding accumulation of the ^211At-psyche-B in the thyroid gland, since the weight of the thyroid gland could not be precisely measured, it was shown that the rate (% ID) of the ^211At-psyche-B accumulated in the thyroid gland in the administered ^211At-psyche-B.

[2] = system: human stomach cancer cells (MKN-45); experiment: Experiment 8: therapeutic effects and toxicity of Cupid-scFv antibody (24 h before)+^211At-psyche-BR in MKN-45 cancer-bearing mouse models; conditions: for general states and body weight: Day 5, urgent euthanasia
Method: The present experiment used human stomach cancer cells (MKN-45) expressing carcinoembryonic antigen (CEA). 9-week-old male immunodeficient mice (BALB/cSlc nu/nu) were used. MKN-45 cells (5×10^6/0.1 ml) were transplanted into the mice's subcutis on the right shoulder dorsal side to produce cancer-bearing mouse models. At the time point in which the tumor volume became a predetermined size (on Day 8 after the transplantation), the mice were divided into seven groups, which were for use in the evaluation of the therapeutic effects, and a biodistribution group (6 hours) of cancer-bearing mouse models having this tumor size. The Cupid-scFv antibody was administered 100 μmol/0.1 ml via the caudal vein of each mouse. Twenty-four hours after administration of the Cupid-scFv antibody, ^211At-psyche-BR was administered via the caudal vein of each mouse in an amount of 5.55 MBq, 3.70 MBq, 1.85 MBq, 1.11 MBq, or 0.37 MBq.
To a control group, a solvent for the ^211At-psyche-BR was administered (solvent group). A group to which only cupid was administered was defined as a Cupid group. The mice's general states were observed and recorded immediately after administration of the ^211At-psyche-BR and at 3 hours after the administration. Moreover, until Day 14, after administration of the ^211At-psyche-BR, observation of the general states and the measurement of the body weight was carried out every day. After Day 14 of the administration of the ^211At-psyche-BR, observation of the general states and the measurement of the body weight was carried out every other day. The tumor size was measured every other day after the treatment with the ^211At-psyche-BR. On Day 36, after the treatment with the ^211At-psyche-BR, observation of the general states, the measurement of the body weight, and the measurement of the tumor size were carried out, and the mice were then euthanized by collecting whole blood from the heart of each mouse under isoflurane anesthesia. Tumor tissues and major tissues/organs were excised from the mice, weighed, and immobilized with formalin.

[3] = system: human stomach cancer cells (MKN-45); experiment: Experiment 9: pharmacokinetics (6 h) of Cupid-scFv antibody (24 h before)+^211At-psyche-BR in MKN-45 cancer-bearing mouse models; conditions: six hours after administration, tumor on Day 8 after transplantation
Method: as §1, with “^211At-psyche-BR” for “^211At-psyche-B”, “^211At-psyche-BR.” for “^211At-psyche-B.”

N=C1N[C@H]2[C@H](CS[C@H]2CCCCC(=O)NCCCCCC(=O)Nc2cc(NC(=O)CCCCCNC(=O)CCCC[C@@H]3SC[C@@H]4NC(=N)N[C@@H]43)cc(C(=O)NCCOCCOCCNC(=O)c3cccc([211At])c3)c2)N1 [^211At-psyche-B]
Accumulation in the tumor [1]: 25.8±1.5 % ID/g

N=C1N[C@H]2[C@H](CS[C@H]2CCCCNC(=O)CCCCCC(=O)Nc2cc(NC(=O)CCCCCC(=O)NCCCC[C@@H]3SC[C@@H]4NC(=N)N[C@@H]43)cc(C(=O)NCCOCCOCCNC(=O)c3cccc([211At])c3)c2)N1 [^211At-psyche-BR]
general states and body weight changes ([2]; 0.37 MBq): almost the same levels as in the control group | tumor growth compared with the control group ([2]; 0.37 MBq, until Day 10): tumor growth was suppressed | general states and body weight changes ([2]; 1.11 MBq): almost the same levels as in the control group | tumor growth compared with the control group ([2]; 1.11 MBq, until Day 10): tumor growth was suppressed | tumor growth compared with the control group ([2]; 1.85, 1.11 and 0.37 MBq, after Day 10): the tumor growth was suppressed in an amount-dependent manner | tumor growth compared with the control group ([2]; 1.85 MBq, until Day 10): tumor growth was suppressed | general states and body weight ([2]; 3.70 MBq): general states and body weight reduction became severe | general states and body weight ([2]; 5.55 MBq): general states and body weight reduction became severe | Accumulation in the tumor [3]: 31.0±3.4 % ID/g
